In patent publication EP4566600A1, “AFFECTIVE DISORDER AMELIORATING AGENT” (National University Corporation Kobe University, priority 2022, dated 2024):

Experiments:
[1] = biological target: T1, GFP-PKCγ (Homo sapiens, UniProt P05129); experiment: PKCγ activity inhibitory action in TPA-treated COS7 cells expressing GFP-PKCγ (Western blotting for PKCγ and phosphorylated PKCγ); assay type: cell-based; details: treated with TPA and flavonoid, n=2 (Fig. 5)
T1 construct: expressed in transfected cells; host or cells: COS7 cells, electroporation, 48 h
Method: The PKCγ activity inhibitory action of various flavonoids was tested. Scutellarin (Scu), baicalin (Bai), luteolin (Lut), and apigenin (Api) were used as various flavonoids. A plasmid encoding GFP-PKCγ was introduced into COS7 cells by electroporation and cultured for 48 hours to express GFP-PKCγ. After treating the cells with TPA (12-O-Tetradecanoylphorbol-13-acetate, activator of PKCγ) and each flavonoid, the cells were ground and proteins were subjected to SDS-PAGE. Thereafter, Western blotting was performed for PKCγ and phosphorylated PKCγ (activated form).

[2] = test system: affective disorder model mice (DGKβKO mice); experiment: elevated plus maze test (affective disorder evaluation system 1); assay type: in vivo; details: relative to that in the case of taking placebo; male affective disorder model mice aged 8-11 weeks, drinking water containing 600 mg/L of lithium for 10 consecutive days
Method: Mice in which DGKβ was knocked out (DGKβKO mice) were prepared as an affective disorder (mania) model. This model mice are not associated with dementia.
An elevated plus maze test was used. In an elevated plus maze, a passage with a wall (closed arm) and a passage without a wall (open arm) crossed each other in a cross shape, and normal mice (WT) were afraid of the open arm and stayed in the closed arm for a long time, while affective disorder model mice were less likely to feel anxiety and stayed in the open arm for a long time. Based on this, the ratio of the residence time in the open arm in the test time was used as an index of anxiety.
Male affective disorder model mice aged 8-11 weeks were allowed to freely drink water containing 600 mg/L of lithium for 10 consecutive days.
The affective disorder model mice orally administered with lithium were subjected to affective disorder evaluation system 1 (elevated plus maze test) to evaluate amelioration of affective disorder (mania).

Row | PKCγ activity inhibitory action [1] | SMILES | ratio of the residence time in the open arm [2]
1 | – | [Li] [lithium] | about 30%
2 | observed | O=c1cc(-c2ccc(O)cc2)oc2cc(O)cc(O)c12 [apigenin] | –
3 | observed | O=C(O)[C@H]1O[C@@H](Oc2cc3oc(-c4ccccc4)cc(=O)c3c(O)c2O)[C@H](O)[C@@H](O)[C@@H]1O [baicalin] | –

Row | SMILES | PKCγ activity inhibitory action [1] | ratio of the residence time in the open arm [2]
4 | O=c1cc(-c2ccc(O)c(O)c2)oc2cc(O)cc(O)c12 [luteolin] | observed | –
